Results published in EP4818172A1, “ASCORBIC ACID DERIVATIVES AND COSMETIC CONTAINING SAME” (Seiwa Kasei Co., Ltd., priority 2023, dated 2025).

How the values were obtained:
[1] = system: Normal human dermal fibroblasts; experiment: Collagen production promoting effect (ELISA of free collagen in supernatant); format: cell-based; settings: sample at 10 mM or less, cultured 48 hours, % of control group (100%), N=3
Procedure: Normal human dermal fibroblasts were prepared in D-MEM containing 5% (v/v) fetal bovine serum to a cell density of 2.5 × 10^4 cell s /well, and then pre-incubated for 24 hours on a 96-well plate. After removing the medium, samples prepared to a predetermined concentration in D-MEM containing 5% (v/v) fetal bovine serum were added to each well and cultured for 48 hours. After the culture was completed, the amount of free collagen in the supernatant was quantified by ELISA. Measurements were performed in triplicate (N=3).
The amount of collagen produced when the sample was measured at a concentration of 10 mM or less was compared with that of the control group, and the results (% values when the control group was set to 100%) are shown in Table 17 based on the following criteria. • <100%: ± • 100-140%: + • 140%<: ++ [Table 17]

[2] = system: Normal human epidermal keratinocytes; experiment: Antioxidant effect: ROS production inhibition after H2O2 (DCFHDA probe); format: cell-based; settings: sample at 10 mM or less, 24 hours, then 0.2 mM H2O2 for 2 hours, N=4
Procedure: Normal human epidermal keratinocytes were seeded onto a 96-well plate using KG2 medium at a cell density of 2.0 × 10^4 cells/well. After 24 hours of pre-incubation, samples adjusted to a predetermined concentration in KG2 medium were added to each well. After 24 hours of incubation, the medium was removed, followed by washing with HBSS(-) and the incorporation of the ROS-reactive fluorescent probe DCFHDA for 30 minutes. The cells were again washed with HBSS(-), treated with 0.2 mM H2O2, and incubated for 2 hours. The fluorescence intensity was measured, and the amount of ROS produced per unit protein was calculated by dividing the fluorescence intensity by the amount of protein quantified by the BCA method, resulting in an analytical value of 1. Furthermore, the amount of ROS production calculated without adding the sample adjusted to a predetermined concentration using the above test method was set to analytical value 2; and the amount of ROS production calculated without adding the sample or 0.2 mM H2O2 was set to analytical value 3.
ROS production inhibition rate (%) was calculated using the following formula. The higher the ROS production inhibition rate, the greater the antioxidant effect can be evaluated to be.
ROS production inhibition rate (%) = [(analysis value 2) - (analysis value 1)] / [(analysis value 2) - (analysis value 3)] × 100
The ROS production inhibition rate when the sample was measured at a concentration of 10 mM or less was evaluated as follows. Note that the measurement was performed in N=4. • <20%: + • 20-40%: ++ • 40%<: +++ [Table 21]

[3] = system: Normal human dermal fibroblasts (NHDF); experiment: Hyaluronic acid production promoting effect (ELISA of supernatant); format: cell-based; settings: sample at 10 mM or less in serum-free D-MEM, cultured 48 hours, % of control group (100%), N=3
Summary of the method: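 NHDF pre-incubated 24 h in D-MEM/5% FBS, then exposed to samples (10 mM or less) in serum-free D-MEM for 48 h. Supernatant hyaluronic acid measured by ELISA, triplicate. Output expressed as % of untreated control (control = 100%), graded ±/+/++ at <100%, 100-120%, >120%.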

[4] = Stability test -2: residual rate in cream of pH 7 or 9 stored at 50°C; format: physicochemical; settings: cream with 4.0 W/W% derivative
Procedure: (§1) For each of the samples of Synthesis Examples 9 to 32, (a) and (b) shown in Table 12 were each heated and mixed. After cooling, (c) shown in Table 12 was added to prepare a cream with a pH of 7 or 9. The sample was stored at 50°C for 4 weeks, and the residual rate was determined in the same manner as in Test Example 1 and evaluated according to the criteria described below. The odor and coloration were also evaluated according to the same method and criteria as in Test Example 1. The results regarding the residual rate are shown in Tables 13 and 14, and the results regarding the odor and coloration are shown in Tables 15 and 16.
• ⊚: 95% or more • ○: 85% or more, less than 95% • ×: Less than 85% [Table 12]

[5] = Stability test -2: odor and coloration of cream stored at 50°C; format: physicochemical; settings: Test Example 2, cream stored at 50°C, total score of 10 panelists
Procedure: For each of the samples of Synthesis Examples 1 to 6, 1% aqueous solutions were adjusted to pH 3, 5, 7, 8, and 9 with a dilute potassium hydroxide aqueous solution, and then placed in 50 mL screw tubes and • 2: Color changes compared to immediately after preparation. • 1: Strongly colored compared to immediately after preparation. Based on the results of the above evaluation, the following classification was made: • ○: Total score of 10 panelists is 25 or more • △: Total score of 10 panelists is 16-24 • ×: The total score of 10 panelists is 15 or less [Table 10]
as §1

Row | Structure (SMILES) | Collagen production-promoting effect [1] | Antioxidant effect (ROS production inhibition rate) [2] | Hyaluronic acid production-promoting effect [3] | Residual Rate After 2 weeks ([4]; pH7, stored at 50°C) | Residual Rate After 4 weeks ([4]; pH7, stored at 50°C) | Residual Rate After 2 weeks ([4]; pH9, stored at 50°C) | Residual Rate After 4 weeks ([4]; pH9, stored at 50°C) | Coloration After 2 weeks [5] | Odor After 2 weeks [5] | Coloration After 4 weeks [5] | Odor After 4 weeks [5]
1 | O=C1O[C@H]([C@@H](O)CO)C(O)=C1OCC(O)CO (stereo partly shown) [2-O-glyceryl ascorbic acid, reference compound] | + (100-140%) | + (<20%) |  |  |  |  |  |  |  |  | 
2 | O=C1O[C@H]([C@@H](O)CO)C(OCC(O)CO)=C1O (stereo partly shown) [3-O-glyceryl ascorbic acid, reference compound] | + (100-140%) | + (<20%) |  |  |  |  |  |  |  |  | 
3 | CCCC(=O)OCC(O)C1OC(=O)C2=C1OCCCCO2 (stereo not shown) [synthesis example 9, 6-O-butanoyl-2,3-O-(1,4-butanediyl) ascorbic acid] | + (100-140%) | ++ (20-40%) | ++ (120%<) | ⊚ (95% or more) | ⊚ (95% or more) | ⊚ (95% or more) | ⊚ (95% or more) | ○ (Total score of 10 panelists is 25 or more) | ○ (Total score of 10 panelists is 25 or more) | ○ (Total score of 10 panelists is 25 or more) | Δ
4 | CCCC(=O)OCC(OC(=O)CCC)C1OC(=O)C2=C1OCCCCO2 (stereo not shown) [synthesis example 10, 5,6-O-dibutanoyl-2,3-O-(1,4-butanediyl) ascorbic acid] | ++ (140%<) | + (<20%) | ++ (120%<) | ⊚ (95% or more) | ⊚ (95% or more) | ⊚ (95% or more) | ⊚ (95% or more) | ○ (Total score of 10 panelists is 25 or more) | ○ (Total score of 10 panelists is 25 or more) | ○ (Total score of 10 panelists is 25 or more) | Δ
5 | CCCCCCCCCCCC(=O)OCC(O)C1OC(=O)C2=C1OCCCCO2 (stereo not shown) [synthesis example 13, 6-O-lauroyl-2,3-O-(1,4-butanediyl) ascorbic acid] |  | + (<20%) | ++ (120%<) | ⊚ (95% or more) | ⊚ (95% or more) | ⊚ (95% or more) | ⊚ (95% or more) | ○ (Total score of 10 panelists is 25 or more) | ○ (Total score of 10 panelists is 25 or more) | ○ (Total score of 10 panelists is 25 or more) | Δ
6 | CCCCCCCCCCCC(=O)OCC(OC(=O)CCCCCCCCCCC)C1OC(=O)C2=C1OCCCCO2 (stereo not shown) [synthesis example 14, 5,6-O-dilauroyl-2,3-O-(1,4-butanediyl) ascorbic acid] |  | + (<20%) | ++ (120%<) | ⊚ (95% or more) | ⊚ (95% or more) | ⊚ (95% or more) | ○ (85% or more, less than 95%) | ○ (Total score of 10 panelists is 25 or more) | ○ (Total score of 10 panelists is 25 or more) | ○ (Total score of 10 panelists is 25 or more) | Δ
7 | CC(C)CCCCCCCCCCCCCCC(=O)OC[C@H](O)[C@H]1OC(=O)C2=C1OCCCCO2 [synthesis example 17, 6-O-isostearoyl-2,3-O-(1,4-butanediyl) ascorbic acid] | ++ (140%<) | + (<20%) | ++ (120%<) | ⊚ (95% or more) | ⊚ (95% or more) | ⊚ (95% or more) | ⊚ (95% or more) | ○ (Total score of 10 panelists is 25 or more) | ○ (Total score of 10 panelists is 25 or more) | ○ (Total score of 10 panelists is 25 or more) | Δ
8 | CCCCCCCC(=O)OCC(OC(=O)CCCCCCC)C1OC(=O)C2=C1OCCCO2 (stereo not shown) [synthesis example 23, 5,6-O-dioctanoyl-2,3-O-(1,3-propanediyl) ascorbic acid] | ++ (140%<) | + (<20%) | + (100-120%) | ⊚ (95% or more) | ⊚ (95% or more) | ⊚ (95% or more) | ⊚ (95% or more) | ○ (Total score of 10 panelists is 25 or more) | ○ (Total score of 10 panelists is 25 or more) | ○ (Total score of 10 panelists is 25 or more) | Δ
9 | CCCCCCCCCCCCCCCC(=O)OCC(O)C1OC(=O)C2=C1OCCCCO2 (stereo not shown) [synthetic example 15, 6-O-palmitoyl-2,3-O-(1,4-butanediyl) ascorbic acid] | ++ (140%<) | + (<20%) | ++ (120%<) | ⊚ (95% or more) | ⊚ (95% or more) | ⊚ (95% or more) | ⊚ (95% or more) | ○ (Total score of 10 panelists is 25 or more) | ○ (Total score of 10 panelists is 25 or more) | ○ (Total score of 10 panelists is 25 or more) | Δ
